What is called EC50 is the concentration at which the effect is half-maximal. By IC50 is commonly meant the midpoint of a concentration-inhibition curve. The inhibition is the drop in the measured response relative to a control, in per cent.

We go through twelve compounds from paper PMC8480782, “Efficient Dimerization Disruption of Leishmania infantum Trypanothione Reductase by Triazole-phenyl-thiazoles” (Journal of Medicinal Chemistry, 2021).

For one test, the system named is HepG2 cells. The test can be described thus: Cellular toxicity, crystal violet assay. The class given is cell-based. Particulars: Homo sapiens, read-out: EC50 HepG2. Summed up: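 HepG2 cells in DMEM with 10% FCS were exposed to compounds at 10^5 cells/mL for 24 h at 37 °C and 5% CO2. Remaining cells were stained with crystal violet, solubilized in 1% SDS and read at 570 nm. EC50 was obtained by nonlinear regression from triplicates in at least three independent experiments.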

A further test addresses T1, LiTryR (Leishmania infantum, UniProt A4HSF7).
T1 construct: HIS (N); made in house; host or cells: E. coli BL21 (DE3) Rossetta
The test can be described thus: biochemical. Particulars: for IC50: LiTryR, 1 μM TS2, maximum assayed 75 μM, read-out: IC50^act, TryR oxidoreductase activity. The class given is biochemical. Summed up: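 Recombinant HIS- or HIS-FLAG-tagged LiTryR (7 nM, E. coli-expressed) in DTNB-coupled assay at 26 °C, pH 7.5 HEPES with NADP+ 30 μM, DTNB 25 μM, NADPH 150 μM, TS2 1 μM, 1.75% DMSO. Reaction started with NADPH/TS2; TNB formation followed at 412 nm, data fitted by nonlinear regression.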

For another test, the target named is T2, LiTryR dimer (Leishmania infantum, UniProt A4HSF7).
T2 construct: made in house; host or cells: E. coli BL21 (DE3) Rossetta (co-transformed with both plasmids)
T2 sequence (A4HSF7 1-491): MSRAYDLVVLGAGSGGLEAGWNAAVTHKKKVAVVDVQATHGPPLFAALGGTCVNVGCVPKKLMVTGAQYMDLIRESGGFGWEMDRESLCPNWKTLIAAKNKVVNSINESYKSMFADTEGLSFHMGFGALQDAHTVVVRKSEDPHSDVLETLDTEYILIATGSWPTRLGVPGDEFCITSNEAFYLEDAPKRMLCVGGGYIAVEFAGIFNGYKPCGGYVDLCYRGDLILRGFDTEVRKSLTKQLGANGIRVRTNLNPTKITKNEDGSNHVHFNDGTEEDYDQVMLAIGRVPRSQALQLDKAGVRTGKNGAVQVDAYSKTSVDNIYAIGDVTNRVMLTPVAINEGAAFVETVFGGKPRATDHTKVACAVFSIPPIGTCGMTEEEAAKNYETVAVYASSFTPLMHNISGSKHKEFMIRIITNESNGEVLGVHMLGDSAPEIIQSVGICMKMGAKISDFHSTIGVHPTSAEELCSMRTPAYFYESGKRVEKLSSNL
The test can be described thus: biochemical. The conditions noted are these: for IC50: 400 nM LiTryR, 16 h at 37 °C, read-out: IC50^dim, LiTryR monomer displacement (dimer quantitation ELISA); for inhibition at 20 µM: read-out: Percentage of inhibition (dimerization) observed at 20 μM, 20 μM compound. A general note: ELISA stands for enzyme-linked immunosorbent assay.

Where [1] appears, read: HepG2, 24 h, crystal violet method.

Each structure is given as a SMILES string. Like-named read-outs stand apart in the source and are kept apart here.

T1 sequence (A4HSF7 1-491): as above

Take `NCCCCc1cn(-c2ccc(-c3nc(CCc4ccc5ccccc5c4)cs3)c(OCCN3CCNC3=O)c2)nn1.O=C(O)C(F)(F)F` [12b, 1-(2-(5-(4-(4-Ammoniumbutyl)-1H-1,2,3-triazol-1-yl)-2-(4-(2-(naphthalen-2-yl)ethyl)thiazol-2-yl)phenoxy)ethyl)imidazolidin-2-one 2,2,2-Trifluoroacetate]: the EC50 with HepG2 cells (setting [1]) was determined as 33.3 ± 2.7 µM. Moreover, the IC50 was 5.9 ± 1.1 µM on LiTryR and 7.1 ± 0.6 µM at LiTryR dimer. For the same compound, at LiTryR dimer, the inhibition at 20 µM is 73%.
For the compound `NCCCCc1cn(-c2ccc(-c3nc(CCc4ccc(-c5ccccc5)cc4)cs3)c(OCCN3CCNC3=O)c2)nn1.O=C(O)C(F)(F)F` [12c, 1-(2-(2-(4-(2-([1,1′-Biphenyl]-4-yl)ethyl)thiazol-2-yl)-5-(4-(4-ammoniumbutyl)-1H-1,2,3-triazol-1-yl)phenoxy)ethyl)imidazolidin-2-one 2,2,2-Trifluoroacetate], in the test on HepG2 cells (setting [1]), the EC50 was 43.1 ± 2.6 µM. Besides, the IC50 at LiTryR was 10.9 ± 1.8 µM; at LiTryR dimer it was 4.8 ± 0.6 µM. Besides, at LiTryR dimer, the inhibition at 20 µM came to 78%.
On to `NCCCc1cn(-c2ccc(-c3nc(CCc4ccc(-c5ccccc5)cc4)cs3)c(OCCN3CCNC3=O)c2)nn1.O=C(O)C(F)(F)F` [12i], for which the EC50 in the test with HepG2 cells (setting [1]) came out at 60.4 ± 3 µM. For the same compound, the 50% inhibitory concentration (IC50) stood at 19.7 ± 3.8 µM on LiTryR and 10.8 ± 0.1 µM at LiTryR dimer.
On the same counts, the results for `NCCCCc1cn(-c2ccc(-c3nc(-c4ccccc4)cs3)c(OCCN3CCNC3=O)c2)nn1.O=C(O)C(F)(F)F` [12n] are 16.4 ± 2.3 µM, 11.2 ± 0.2 µM and 29 ± 1.5 µM.
Take `NCCCCc1cn(-c2ccc(-c3nc(CCc4ccc5c(c4)CCCN5)cs3)c(OCCN3CCNC3=O)c2)nn1.O=C(O)C(F)(F)F.O=C(O)C(F)(F)F` [12q]: the EC50 with HepG2 cells (setting [1]) was 43.3 ± 1 µM. Further, the IC50 on LiTryR was 6.9 ± 2.1 µM; at LiTryR dimer, over 75 µM.
Regarding `NCCCCc1cn(-c2ccc(-c3nc(CCc4ccc5c(c4)CCO5)cs3)c(OCCN3CCNC3=O)c2)nn1.O=C(O)C(F)(F)F` [12r], the EC50 with HepG2 cells (setting [1]) was determined as 29.4 ± 0.7 µM. The IC50 is 11.9 ± 0.6 µM on LiTryR and 10.7 ± 0.5 µM on LiTryR dimer.
Consider `NCCCCc1cn(-c2ccc(-c3nc(CCc4ccc5oc6ccccc6c5c4)cs3)c(OCCN3CCNC3=O)c2)nn1.O=C(O)C(F)(F)F` [12s], for which the EC50 in the test on HepG2 cells (HepG2, 24 h) is over 75 µM. In addition, the IC50 at LiTryR is 6.6 ± 1.9 µM; at LiTryR dimer it was 8.8 ± 0.2 µM.
In the case of `NCCCCc1cn(-c2ccc(-c3nc(-c4ccccc4)c(-c4ccccc4)s3)c(OCCN3CCNC3=O)c2)nn1.O=C(O)C(F)(F)F` [19a, 1-(2-(5-(4-(4-Ammoniobutyl)-1H-1,2,3-triazol-1-yl)-2-(4,5-diphenylthiazol-2-yl)phenoxy)ethyl)imidazolidin-2-one 2,2,2-Trifluoroacetate], the EC50 in the test on HepG2 cells (setting [1]) turned out to be 26.5 ± 4.1 µM. Also, the IC50 at LiTryR amounted to 4.3 ± 1 µM; on LiTryR dimer, 7.1 ± 1.7 µM.
`NCCCCc1cn(-c2ccc(-c3nc(-c4ccc(Oc5ccccc5)cc4)c(-c4ccccc4)s3)c(OCCN3CCNC3=O)c2)nn1.O=C(O)C(F)(F)F` [19c, 1-(2-(5-(4-(4-Ammoniobutyl)-1H-1,2,3-triazol-1-yl)-2-(4-([4-phenyloxyphenyl]-1-yl)-5-phenylthiazol-2-yl)phenoxy)ethyl)imidazolidin-2-one 2,2,2-Trifluoroacetate]: the EC50 in the test on HepG2 cells (setting [1]) is at least 75 µM. The IC50 came to 16.9 ± 2.7 µM on LiTryR and 9 ± 0.5 µM at LiTryR dimer.
In the case of `NCCNCc1nccn1-c1ccc(-c2nc(CCc3ccc4ccccc4c3)cs2)c(OCCN2CCNC2=O)c1` [compound 2, reference compound], the EC50 with HepG2 cells (setting [1]) was 27.1 ± 2.4 µM. Besides, the IC50 on LiTryR is 5.1 ± 0.4 µM. In addition, the inhibition at 20 µM at LiTryR dimer is about 30%.
As for `NCCNCc1nccn1-c1ccc(-c2nc(CCc3ccc(-c4ccccc4)cc3)cs2)c(OCCN2CCNC2=O)c1` [compound 3, reference compound], the EC50 in the test with HepG2 cells (setting [1]) came out at 14.2 ± 0.9 µM. Moreover, the IC50 on LiTryR amounted to 8.6 ± 1.4 µM. In addition, the inhibition at 20 µM at LiTryR dimer was about 30%.
Consider `NCCCCc1cn(-c2ccc(-c3nc(-c4cccc(-c5csc(-c6ccc(-n7cc(CCCCN)nn7)cc6OCCN6CCNC6=O)n5)c4)cs3)c(OCCN3CCNC3=O)c2)nn1.O=C(O)C(F)(F)F.O=C(O)C(F)(F)F` [compound 22, 1,1′-((((1,3-Phenylenebis(thiazole-4,2-diyl))bis(5-(4-(4-ammoniobutyl)-1H-1,2,3-triazol-1-yl)-2,1-phenylene))bis(oxy))bis(ethane-2,1-diyl))bis(imidazolidin-2-one)bis(2,2,2-trifluoroacetate)], for which, in the test with HepG2 cells (setting [1]), the EC50 turned out to be 30.5 ± 4.1 µM. Further, the IC50 on LiTryR is 0.4 ± 0.03 µM; at LiTryR dimer, 8 ± 0.2 µM. On LiTryR (versus monomeric 12n), the “fold more potent than 12n, IC50^act” value is recorded as 28 fold. Moreover, the “fold more potent than 12n, IC50^dim” value at LiTryR dimer (versus monomeric 12n) stood at 4 fold.
